Assay results from paper PMC8022280 (ChemMedChem, 2018).

What was measured:
[1] = molecular target: T1, Wip1 (Homo sapiens, UniProt O15297); assay: Quantitative ELISA of γH2AX levels in MCF7 cells; type: cell-based; settings: no IR (Figure S2)
T1 sequence (O15297 1-605): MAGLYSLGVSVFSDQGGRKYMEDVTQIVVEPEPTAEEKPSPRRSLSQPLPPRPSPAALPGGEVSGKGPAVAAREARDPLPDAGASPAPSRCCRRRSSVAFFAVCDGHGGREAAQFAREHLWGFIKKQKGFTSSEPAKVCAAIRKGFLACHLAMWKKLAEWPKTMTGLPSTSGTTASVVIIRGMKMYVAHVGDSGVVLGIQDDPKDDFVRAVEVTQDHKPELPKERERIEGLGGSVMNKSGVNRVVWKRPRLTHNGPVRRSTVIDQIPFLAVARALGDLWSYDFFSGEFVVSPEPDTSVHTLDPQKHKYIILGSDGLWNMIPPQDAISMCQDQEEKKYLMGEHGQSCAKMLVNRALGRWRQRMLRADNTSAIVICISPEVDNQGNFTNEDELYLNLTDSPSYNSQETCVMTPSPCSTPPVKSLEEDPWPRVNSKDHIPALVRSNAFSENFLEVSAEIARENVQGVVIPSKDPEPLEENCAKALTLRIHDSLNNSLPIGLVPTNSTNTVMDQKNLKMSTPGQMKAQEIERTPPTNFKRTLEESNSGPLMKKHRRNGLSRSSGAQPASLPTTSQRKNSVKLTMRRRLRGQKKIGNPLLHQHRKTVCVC

[2] = molecular target: T1, Wip1; assay: Inhibition of Wip1 phosphatase activity toward the ATM; type: biochemical

| increase in γH2AX levels in the absence of exposure to IR [1] | IC50 [2] | SMILES |
| --- | --- | --- |
| did not produce a detectable increase | – | Cc1ncc(Cl)cc1NCc1ccc(C(=O)N[C@@H](CC2CCCC2)C(=O)NC2CC2)s1 [GSK2830371, reference compound] |
| did not produce a detectable increase | 920 nM | COC(=O)[C@H](CCCCNC(=O)[C@H](CC1CCCCC1)NC(=O)c1cccs1)NC(=O)c1cccc(O)c1 [Compound 1, Methyl-N^6-((S)-3-cyclohexyl-2-(thiophene-2-carboxamido)propanoyl)-N^2-(3-hydroxybenzoyl)-L-lysinate] |
